From PubChem BioAssay (NCI)
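Grown in 96-well plates, cells were treated for 48 hours with each compound at five concentrations. Insufficient inhibition: endpoint recorded as highest concentration tested. At the GI50, growth is halved. TGI marks complete inhibition of growth.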

How the values were obtained:
Assay in all cases: NCI-60 cell line screen, 48 h
[1] = system: CAKI-1 renal
[2] = system: COLO 205 colon
[3] = system: KM12 colon
[4] = system: M14 melanoma
[5] = system: MCF7 breast
[6] = system: NCI-H23 lung
[7] = system: OVCAR-3 ovarian
[8] = system: SR leukemia
[9] = system: U251 CNS
[10] = system: UACC-62 melanoma

Work on `COc1ccc(S(=O)(=O)Nc2cc(/C=C\c3cc(OC)c(OC)c(OC)c3)cc(OC)c2OC)cc1OC` yielded a GI50 [1] of 0.813 µM, a TGI [1] greater than 100 µM and a GI50 [2] of 1.28 µM. The TGI [2] was greater than 100 µM, the GI50 [3] was 0.639 µM and the TGI [3] was greater than 100 µM. The GI50 [4] was 0.419 µM, the TGI [4] was greater than 100 µM and the GI50 [5] was 0.484 µM. It also gave a TGI [5] greater than 100 µM, a GI50 [6] of 3.31 µM and a TGI [6] greater than 100 µM. For the same molecule, the GI50 [7] was 0.418 µM, the TGI [7] was greater than 100 µM and the GI50 [8] was 0.704 µM. It also gave a TGI [8] greater than 100 µM, a GI50 [9] of 0.681 µM and a TGI [9] greater than 100 µM. For the same molecule, the GI50 [10] was 0.494 µM and the TGI [10] was greater than 100 µM.
`O=C1OCC2=C1C(c1ccccc1)c1cc3c(cc1N2CCO)CCC3` (configuration not stated) was tested, and the GI50 [1] was 0.0868 µM, the TGI [1] was greater than 25 µM and the GI50 [2] was 0.0854 µM. It also gave a TGI [2] of 0.331 µM, a GI50 [3] of 0.0793 µM and a TGI [3] of 0.922 µM. It also gave a GI50 [4] of 0.0722 µM, a TGI [4] of 0.351 µM and a GI50 [5] of 0.0841 µM. For the same molecule, the TGI [5] was greater than 25 µM, the GI50 [6] was 0.106 µM and the TGI [6] was greater than 9.91 µM. It also gave a GI50 [7] of 0.0467 µM, a TGI [7] of 0.0975 µM and a GI50 [8] of 0.0762 µM. It also gave a TGI [8] greater than 25 µM, a GI50 [9] of 0.116 µM and a TGI [9] greater than 25 µM. For the same molecule, the GI50 [10] was 0.111 µM and the TGI [10] was greater than 25 µM.
Work on `C[CH2][Sn]1([CH2]C)[O]C2C(O)OC(CO)C(O)C2[O]1` (configuration not stated) yielded a GI50 [1] of 31.1 µM, a TGI [1] greater than 100 µM and a GI50 [2] of 35.2 µM. The TGI [2] was greater than 100 µM, the GI50 [3] was 90.4 µM and the TGI [3] was greater than 100 µM. It also gave a GI50 [4] of 37.3 µM, a TGI [4] greater than 100 µM and a GI50 [5] of 25.4 µM. The TGI [5] was 79.5 µM, the GI50 [6] was 24.2 µM and the TGI [6] was 93 µM. It also gave a GI50 [7] greater than 100 µM, a TGI [7] greater than 100 µM and a GI50 [8] of 13.3 µM. It also gave a TGI [8] of 39.6 µM, a GI50 [9] of 17.9 µM and a TGI [9] of 36.9 µM. For the same molecule, the GI50 [10] was 17.9 µM and the TGI [10] was 39.6 µM.
For `CCOc1ccc(/C=N/Nc2cc(C)nc3ccc(Cl)cc23)cc1`, the GI50 [1] was 1.78 µM, the TGI [1] was 3.2 µM and the GI50 [2] was 1.91 µM. For the same molecule, the TGI [2] was 3.47 µM, the GI50 [3] was 1.89 µM and the TGI [3] was 3.65 µM. It also gave a GI50 [4] of 1.53 µM, a TGI [4] of 2.91 µM and a GI50 [5] of 1.67 µM. The TGI [5] was 3.32 µM, the GI50 [6] was 1.76 µM and the TGI [6] was 3.32 µM. For the same molecule, the GI50 [7] was 1.93 µM, the TGI [7] was 3.5 µM and the GI50 [8] was 1.12 µM. The TGI [8] was 3.5 µM, the GI50 [9] was 1.91 µM and the TGI [9] was 3.38 µM. For the same molecule, the GI50 [10] was 1.79 µM and the TGI [10] was 3.32 µM.
Work on `CNC(=O)c1cc(Oc2ccc3nc(NC(=O)c4cc(C(F)(F)F)cc(C(F)(F)F)c4)sc3c2)ccn1` yielded a GI50 [1] of 2.75 µM, a TGI [1] of 10.7 µM and a GI50 [2] of 2.82 µM. For the same molecule, the TGI [2] was 8.21 µM, the GI50 [3] was 2.7 µM and the TGI [3] was 11 µM. For the same molecule, the GI50 [4] was 3.61 µM, the TGI [4] was 19.4 µM and the GI50 [5] was 3.37 µM. It also gave a TGI [5] of 18 µM, a GI50 [6] of 3.37 µM and a TGI [6] of 17.7 µM. It also gave a GI50 [7] of 2.32 µM, a TGI [7] of 6.64 µM and a GI50 [8] of 3.37 µM. It also gave a TGI [8] of 15 µM, a GI50 [9] of 3.65 µM and a TGI [9] of 13.7 µM. For the same molecule, the GI50 [10] was 2.71 µM and the TGI [10] was 12.1 µM.
In the case of `CCCCCCCCCCCCCCCCCC(=O)[O][Sn]([CH2]CCC)([CH2]CCC)[CH2]CCC`, the GI50 [1] is reported as 0.0524 µM, the TGI [1] is reported as 0.214 µM and the GI50 [2] is reported as 0.171 µM. It also gave a TGI [2] of 0.373 µM, a GI50 [3] of 0.124 µM and a TGI [3] of 0.266 µM. For the same molecule, the GI50 [4] was 0.169 µM, the TGI [4] was 0.32 µM and the GI50 [5] was 0.134 µM. For the same molecule, the TGI [5] was 0.267 µM, the GI50 [6] was 0.127 µM and the TGI [6] was 0.287 µM. For the same molecule, the GI50 [7] was 0.126 µM, the TGI [7] was 0.254 µM and the GI50 [8] was 0.0738 µM. For the same molecule, the TGI [8] was 0.388 µM, the GI50 [9] was 0.153 µM and the TGI [9] was 0.319 µM. It also gave a GI50 [10] of 0.176 µM and a TGI [10] of 0.45 µM.
`COC(=O)c1c2c(c[n+]([O-])c1C)C(=O)C(NCc1ccccc1)=CC2=O` was tested, and the GI50 [1] was 1.27 µM, the TGI [1] was 3.18 µM and the GI50 [2] was 0.312 µM. It also gave a TGI [2] of 0.984 µM, a GI50 [3] of 0.608 µM and a TGI [3] of 3.03 µM. It also gave a GI50 [4] of 0.297 µM, a TGI [4] of 1.12 µM and a GI50 [5] of 0.224 µM. The TGI [5] was 0.726 µM, the GI50 [6] was 0.485 µM and the TGI [6] was 2.6 µM. It also gave a GI50 [7] of 0.256 µM, a TGI [7] of 0.796 µM and a GI50 [8] of 1.29 µM. For the same molecule, the TGI [8] was greater than 100 µM, the GI50 [9] was 0.51 µM and the TGI [9] was 1.89 µM. It also gave a GI50 [10] of 0.334 µM and a TGI [10] of 1.06 µM.
For `N#CC(NC12CC3CC(CC(C3)C1)C2)c1ccccc1` (configuration not stated), the TGI [1] was greater than 100 µM, the TGI [2] was greater than 100 µM and the TGI [3] was greater than 100 µM. It also gave a TGI [4] greater than 100 µM, a TGI [5] greater than 100 µM and a TGI [6] greater than 100 µM. The TGI [7] was greater than 100 µM, the TGI [8] was greater than 100 µM and the TGI [9] was greater than 100 µM. For the same molecule, the TGI [10] was greater than 100 µM.
`C[C@H]1O[C@@H](O[C@H]2[C@@H](O)C[C@H](O[C@H]3[C@@H](O)C[C@H](O[C@H]4CC[C@]5(C)C6C[C@@H](O)[C@]7(C)[C@@H](C8=CC(=O)OC8)CC[C@]7(O)C6CC[C@@H]5C4)O[C@@H]3C)O[C@@H]2C)C[C@H](O)[C@@H]1O` (some centres not stated) gave a GI50 [1] of 0.0857 µM, a TGI [1] of 0.261 µM and a GI50 [2] of 0.146 µM. The TGI [2] was 0.374 µM, the GI50 [3] was 0.144 µM and the TGI [3] was 0.544 µM. The GI50 [4] was 0.107 µM, the TGI [4] was 0.241 µM and the GI50 [5] was 0.0521 µM. The TGI [5] was 1.69 µM, the GI50 [6] was 0.0251 µM and the TGI [6] was 0.112 µM. The GI50 [7] was 0.0241 µM, the TGI [7] was 0.0792 µM and the GI50 [8] was 0.0552 µM. The TGI [8] was 0.307 µM, the GI50 [9] was 0.0668 µM and the TGI [9] was 0.145 µM. For the same molecule, the GI50 [10] was 0.103 µM and the TGI [10] was 0.228 µM.
`N#Cc1cc(-c2ccccc2)[nH]c1-c1nccc2ccccc12` gave a GI50 [1] of 12.5 µM, a TGI [1] greater than 100 µM and a GI50 [2] of 11.7 µM. The TGI [2] was 33.2 µM, the GI50 [3] was 20.7 µM and the TGI [3] was greater than 100 µM. For the same molecule, the GI50 [4] was 14.9 µM, the TGI [4] was 84.7 µM and the GI50 [5] was 5.76 µM. It also gave a TGI [5] greater than 100 µM, a GI50 [6] of 6.31 µM and a TGI [6] greater than 100 µM. It also gave a GI50 [7] of 21.9 µM, a TGI [7] greater than 100 µM and a GI50 [8] of 5.72 µM. For the same molecule, the TGI [8] was greater than 100 µM, the GI50 [9] was 25.1 µM and the TGI [9] was greater than 100 µM. It also gave a GI50 [10] of 7.36 µM and a TGI [10] greater than 100 µM.
`CC(C)[C@@H]1NC(=O)[C@]2(C)CSC(=N2)c2csc(n2)CNC(=O)C[C@@H](/C=C/CCS)OC1=O` showed a GI50 [1] of 1.83 µM, a TGI [1] of 7.83 µM and a GI50 [2] of 0.228 µM. For the same molecule, the TGI [2] was 0.709 µM, the GI50 [3] was 0.0526 µM and the TGI [3] was greater than 32.4 µM. It also gave a GI50 [4] of 0.0835 µM, a TGI [4] of 52.7 µM and a GI50 [5] of 0.274 µM. The TGI [5] was greater than 100 µM, the GI50 [6] was 0.219 µM and the TGI [6] was greater than 30.6 µM. For the same molecule, the GI50 [7] was 0.359 µM, the TGI [7] was 4.12 µM and the GI50 [8] was 0.0563 µM. For the same molecule, the TGI [8] was greater than 100 µM, the GI50 [9] was 0.0843 µM and the TGI [9] was 1.02 µM. The GI50 [10] was 0.0477 µM and the TGI [10] was 0.28 µM.
With `Clc1ccc(N/N=C/c2ccccn2)nc1` the GI50 [1] was 0.341 µM, the TGI [1] was greater than 22.7 µM and the GI50 [2] was 0.342 µM. The TGI [2] was 18.6 µM, the GI50 [3] was 0.395 µM and the TGI [3] was greater than 54.7 µM. For the same molecule, the GI50 [4] was 0.375 µM, the GI50 [5] was 0.338 µM and the TGI [5] was greater than 100 µM. The GI50 [6] was 0.579 µM, the TGI [6] was greater than 100 µM and the GI50 [7] was 0.295 µM. The TGI [7] was greater than 100 µM, the GI50 [8] was 0.339 µM and the TGI [8] was greater than 52.8 µM. For the same molecule, the GI50 [9] was 0.459 µM, the TGI [9] was greater than 100 µM and the GI50 [10] was 0.301 µM. The TGI [10] was 1.08 µM.
`O=c1oc2c(Br)c(O)c(Br)cc2c2ccccc12` was tested, and the TGI [1] was 31.1 µM, the TGI [2] was greater than 100 µM and the TGI [4] was greater than 100 µM. For the same molecule, the TGI [5] was 48.7 µM, the TGI [6] was 38.6 µM and the TGI [7] was 40.7 µM. It also gave a TGI [8] of 71.6 µM, a TGI [9] of 87.8 µM and a TGI [10] of 50.5 µM.
`CCOC(=O)CC(=O)N(c1ccc(OC)cc1)C(C(=O)OC)c1ccccc1` (configuration not stated) showed a TGI [1] greater than 100 µM, a TGI [2] greater than 100 µM and a TGI [3] greater than 100 µM. The TGI [4] was greater than 100 µM, the TGI [5] was greater than 100 µM and the TGI [6] was greater than 100 µM. The TGI [7] was greater than 100 µM, the TGI [8] was greater than 100 µM and the TGI [10] was greater than 100 µM.
